“Also recorded” adds a separate entry of the source.
Key:
[1] = test system: PGE2; assay: IL-1β-induced PGE2 in osteoarthritic human synoviocytes; assay type: cell-based; settings: for PGE2 release: 200 nanomolar DA or 500 ng/mL IL-1RA, pretreatment 5 min, 1 h or 2 h, IL-1β 1 ng/mL for 10 minutes or 1 hour
Experimental: FIG. 31A depicts early concentrations of PGE2 present in primary […] of varying concentrations of Dex and DA in view of controls. The concentrations in FIG. 31A were measured at hour three.
FIG. 31B is a bar graph depicting PGE2 release from human osteoarthritic synoviocytes treated with media, 200 nanomolar DA, or 500 nanograms/milliliter of IL-1 Receptor Antagonist (IL-1RA) for the specified pretreatment times at the bottom of each panel (5 minutes, 1 hour, or 2 hours, and then stimulated with 1 nanogram/milliliter IL-1β for either 10 minutes or 1 hour, as indicated. PGE2 in picograms/milliliter was released at detectable levels in each of the media treated samples, including the short 10-minute IL-1β stimulation conditions, implicating low level activation caused by a change of media. The media controls within each panel of treatments released increased PGE2 compared to DA treated cells. Cells were also treated with IL-IRA which inhibits IL-1β by binding […], effectively blocking IL-1β signaling. […] DA is able to incorporate into the cell membrane_and the immediate inhibition of signaling may reflect the ability of DA to change the biophysical properties of the cell membrane.
FIG. 33 illustrates two bar graphs that depict the concentrations of PGE2 inside of the cell versus PGE2 that was secreted into the cell culture media. Specifically, the bar graph labeled “Intracellular” illustrates the concentrations of PGE2 inside of the cell and the bar graph labeled “Supernatent” illustrates the concentration of PGE2 that was secreted into the cell culture media. Synoviocytes were stimulated with IL-1β for 6 hours and then cell culture media harvested separately along with collecting cell lysates. […] Specifically, treating osteoarthritic HSF cells with 1 ng/ml IL-1β final concentration causes the cells to secrete large amounts of PGE2 into the cell culture media. […] To test this, the PGE2 concentrations inside of the cells and in the cell culture media were measured to compare them directly to each other. […] Thus, without being bound by theory, it is believed that DA binds to or interacts with MRP4 proteins and prevents MRP4 from successfully transporting PGE2.

[2] = test system: prostaglandin D2 (PGD2); assay: IL-1β-induced PGD2 release in osteoarthritic human synoviocytes; assay type: cell-based; settings: IL-1β 0.5 ng/mL
[3] = test system: interleukin-18, tumor necrosis factor, interleukin-8, and interleukin-6; assay: Other cytokines in two-hit stimulated THP1 macrophages; assay type: cell-based, human; settings: dose dependent; data not shown
[4] = test system: prostaglandin I2 (PGI2); assay: PGI2 in IL-1β-stimulated osteoarthritic synoviocytes; assay type: cell-based, human; settings: IL-1β 1 ng/ml, 24 hours
Experimental: FIG. 25 is a bar graph that depicts the concentration of prostaglandin I2 (PGI2) present in primary human synoviocytes from patients with osteoarthritis that were stimulated with 1 ng/ml final concentration of IL-1β for 24 hours in the presence of varying concentrations of DA and Dex in view of controls. PGI2 concentration response mirrored PGE2 concentrations after DA treatment. […] It is noted that prostaglandin H2 (PGH2) was also tested and was not detected in either cell culture media or from cell lysates. Without being bound by theory, it is believed that PGH2 is an intermediate and is (near) immediately converted into downstream prostaglandins and therefore levels of PGH2 are not detectable.

[5] = test system: SOX9; assay: SOX9 relative expression in osteoarthritic chondrocytes (qRT-PCR, normalized to GAPDH); assay type: cell-based, human
[6] = molecular target: T1, Cyclooxygenase-2 (COX-2) (Homo sapiens, UniProt P35354); assay: COX-2 inhibitor screen; assay type: biochemical; settings: any of the concentrations tested
T1 sequence (P35354 18-604): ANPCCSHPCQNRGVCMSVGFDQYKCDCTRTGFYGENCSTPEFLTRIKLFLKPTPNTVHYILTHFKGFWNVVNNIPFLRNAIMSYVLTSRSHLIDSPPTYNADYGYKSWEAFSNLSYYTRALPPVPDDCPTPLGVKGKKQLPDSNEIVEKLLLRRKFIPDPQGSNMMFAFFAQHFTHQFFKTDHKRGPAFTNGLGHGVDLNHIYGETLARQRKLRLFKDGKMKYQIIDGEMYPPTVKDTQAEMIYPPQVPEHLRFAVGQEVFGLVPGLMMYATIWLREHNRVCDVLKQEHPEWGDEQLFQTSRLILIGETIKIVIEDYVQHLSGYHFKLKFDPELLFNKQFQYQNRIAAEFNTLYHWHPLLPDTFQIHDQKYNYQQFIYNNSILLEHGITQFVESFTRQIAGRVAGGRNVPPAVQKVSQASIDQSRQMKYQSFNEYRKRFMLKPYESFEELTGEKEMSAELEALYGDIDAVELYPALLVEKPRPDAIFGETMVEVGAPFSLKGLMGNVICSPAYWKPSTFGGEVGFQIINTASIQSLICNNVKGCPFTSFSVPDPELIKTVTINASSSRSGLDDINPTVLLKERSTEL
Text: Celecoxib (Celebrex) was used as a positive control for COX-2.

[7] = test system: arachidonic acid (AA); assay: Arachidonic acid in IL-1β-stimulated osteoarthritic synoviocytes; assay type: cell-based, human; settings: IL-1β 1 ng/mL, 3 hours; cell lysates
Experimental: Early concentrations of arachidonic acid (AA) present in primary human synoviocytes from patients with osteoarthritis that were stimulated with 1 ng/mL final concentration interleukin 1-beta (B) for 3 hours in the presence of varying concentrations of Dex and DA in view of controls are depicted in FIG. 32. The concentrations of AA in FIG. 32 were normalized to total protein content from the cell lysates using bicinchoninic acid (BCA).

[8] = test system: IL-1β-induced PGE2 release; assay: IL-1β-induced PGE2 release from normal human chondrocytes (competitive EIA); assay type: cell-based; settings: for inhibition at 10 µM: Homo sapiens, Chondrocyte; for inhibition at 10 µM / inhibition of PGE2 release: 25 uM Dec, singlet
[9] = test system: MMP13; assay: MMP13 relative expression in osteoarthritic chondrocytes (qRT-PCR); assay type: cell-based, human; settings: for Observed Relative expression of MMP13: 0.1% HA, 0.1 uM Dex
[10] = test system: SOX9 versus RUNX2; assay: Relative expression of SOX9 versus RUNX2 in osteoarthritic chondrocytes; assay type: cell-based, human; settings: passage 5 human osteoarthritic chondrocytes, 27 days
[11] = test system: IL-1β release; assay: Two-hit (LPS then ATP) inflammasome activation, IL-1β release from THP1 macrophages; assay type: cell-based, human; settings: with 25 nanomolar Dex
Text: A two-hit model of inflammasome activation in THP1 macrophages was developed that entails an overnight stimulation with LPS followed by a second proinflammatory stimulus, extracellular ATP, which drives inflammasome assembly and subsequent IL-1β release from the cells into the media.
In three independent experiments, THP1 macrophages stimulated by the two-hit model of inflammasome activation released IL-1β in control conditions.

[12] = high passage, dedifferentiated osteoarthritic chondrocytes, TGF-β3, 14 days
[13] = low passage osteoarthritic chondrocytes, 7, 14, 28 days
[14] = pre-incubation 24 hours, 24-hour harvest, 28 mM Lac, 10 uM LA

CCCCCCCCCC(=O)O [DA, decanoic acid]
PGE2 release [1]: blocked the low-level activation seen in media controls | concentrations inhibiting PGE2 release ([1]; IL-1β 0.5 ng/mL): above 1 micromolar | PGE2 inside of the cell ([1]; IL-1β 1 ng/ml, 6 hours, cell lysates): causes PGE2 to build up intracellularly | PGE2 secreted into the cell culture media ([1]; IL-1β 1 ng/ml, 6 hours, supernatant): causes PGE2 secretion to be abrogated | increase in potency of DA ([1]; by 100 picomolar Dex): 2.2 × | concentrations inhibiting PGD2 release [2]: above 1 micromolar | expression of interleukin-18, tumor necrosis factor, interleukin-8, and interleukin-6 [3]: reduced the expression | secreted PGI2 levels [4]: decreases secreted PGI2 levels | SOX9 expression [5, 12]: increased SOX9 transcription | inhibition of COX-2 activity [6]: no observed inhibition | concentration of AA normalized to total protein [7]: lower concentrations of AA than the Dex samples; also recorded: lower than that of the control with IL-1β

CCCCCCCCCC(=O)O [DA/Dec]
SOX9 expression [5, 12]: increased expression of SOX9

C[C@@H]1C[C@H]2[C@@H]3CCC4=CC(=O)C=C[C@]4(C)[C@@]3(F)[C@@H](O)C[C@]2(C)[C@@]1(O)C(=O)CO [Dex, dexamethasone, reference compound]
concentration with statistical significance, PGE2 release ([8]; IL-1β, 48 h): 100 picomolar

C[C@@H]1C[C@H]2[C@@H]3CCC4=CC(=O)C=C[C@]4(C)[C@@]3(F)[C@@H](O)C[C@]2(C)[C@@]1(O)C(=O)COP(=O)(O)O [Dxp, dexamethasone phosphate, reference compound]
MMP13 transcription [9, 13]: reduce MMP13 transcription | SOX9 expression [5, 12]: decreased expression of SOX9 | SOX9 expression [5, 13]: temporal decrease in expression of SOX9

O=C(O)CCCCC1CCSS1 (stereo not drawn) [LA, α-lipoic acid]
inhibition at 10 µM ([8]; 96 h, rescue, 96-hour harvest, 28 mM Lac, 10 uM LA): 33% | inhibition at 10 µM [8, 14]: -59% | SOX9 expression [5, 12]: increased SOX9 transcription; also recorded: increases SOX9 relative expression

CCCCCCCCCC(=O)[O-].[Na+] [decanoate, sodium decanoate]
expression of SOX9 compared to RUNX2 [10]: 1.80+0.47 | inhibition of PGE2 release ([8]; added at the same time as IL-1β, 24-hour harvest): 53% | inhibition of PGE2 release ([8]; added at the same time as IL-1β, 96-hour harvest): 76% | inhibition of PGE2 release [8, 14]: 41% | inhibition of PGE2 release ([8]; pre-incubation, 96-hour harvest): 75% | inhibition of PGE2 release ([8]; rescue (added after overnight IL-1β activation), 24-hour harvest, 28 mM Lac, 10 uM LA): 72% | inhibition of PGE2 release ([8]; rescue, 96-hour harvest, 28 mM Lac, 10 uM LA): 57% | increase in potency of sodium decanoate [11]: 4.6 ×

IL-1RA: IL-1 Receptor Antagonist, blocks IL-1β signaling [reference compound]
PGE2 release [1]: consistently higher than PGE2 levels in DA treated cells

hyaluronic acid [HA]
Observed Relative expression of MMP13 ([9]; 14-day micromass pellet culture): −1.6 fold | Observed Relative expression of MMP13 ([9]; 28-day monolayer culture): 1.0 fold

Source: US20250295608A1, “PHARMACEUTICAL COMPOSITIONS AND METHODS FOR TREATING OSTEOARTHRITIS” (INSIGNIA PHARMACEUTICALS, LLC, priority 2024, published 2025)
